Experimental data: PMC4728661, “Cancer Prevention and Health Benefices of Traditionally Consumed Borago officinalis Plants” (Nutrients, 2016)
Marks after values point to notes of the source that are not given here.

How the values were obtained:
D. melanogaster [1] = experiment: Toxicity: survival of Drosophila larvae to emerged adults, simple and combined (H2O2) treatments; assay type: in vivo, Drosophila melanogaster; conditions: H2O2 0.12 M alone (positive control)
Method: Optimal fertile flies were anesthetized under CO2 narcotisation for cross selection and then placed in new vials for fertilization. After that, hybrid eggs from crossing were collected over an 8 h period and emerged larvae (72 ± 4 h later) were cleaned up for a few seconds in sterile distilled water to remove feeding medium rests. […] Bioactive compound concentrations were chosen on the basis of their known content in B. officinalis species. […] Larvae were fed on these media until pupation (about 48 h). After emergence, resulting adult flies were sacrificed under CO2 narcotisation and stored in a 70% ethanol solution in sterile water. […] The determination of Toxicity (T) of treatments in D. melanogaster was performed following this formula [39]: T = (N° of emerging individuals in treatment/N° of emerging individuals in the negative control) × 100(1) Differences in D. melanogaster survival between treatments at each concentration with respect to negative control were analyzed with a Chi-square test. This procedure was also performed for the analysis of each simple treatment with their correspondent combined treatment.

D. melanogaster [2] = experiment: Genotoxicity: Somatic Mutation and Recombination Test (SMART), wing spot test, simple treatments; assay type: in vivo, Drosophila melanogaster; conditions: H2O2 0.12 M alone (positive control); as to Diagnosis, Small Single Spots 1–2 Cells m = 2: key: + (positive); − (negative); as to Diagnosis, Total Spots m = 2: key: + (positive); − (negative)
Method: The D. melanogaster system was selected for the determination of the safety of B. officinalis consumption as a well-recognized method to analyze vegetable complex mixtures using SMART [31, 32]. This test was used in order to evaluate the genotoxic and antigenotoxic activity of B. officinalis leaves and petioles as well as their selected bioactive compounds [33]. This activity was measured by direct visualization of the occurrence of recessive mutations in the wing hairs of two different D. melanogaster strains. Flies from experiments carried these visible wing genetic markers: the flare (flr) strain flr^3/ln (3LR) TM3, Bd^s and the multiple wing-hair (mwh) strain mwh/mwh. The marker flare (flr^3, 3_38.3) produces individual malformed hairs and the marker multiple wing hairs (mwh, 3_0.3) produces multiple hairs per cell. Larvae used in treatments come from two types of crosses: the standard cross with flr^3/TM3, Bd^S females mated to mwh/mwh males and the reciprocal cross.
Optimal fertile flies were anesthetized under CO2 narcotisation for cross selection and then placed in new vials for fertilization. After that, hybrid eggs from crossing were collected over an 8 h period and emerged larvae (72 ± 4 h later) were cleaned up for a few seconds in sterile distilled water to remove feeding medium rests. For genotoxicity analysis (simple treatments), groups of 100 larvae were transferred into vials containing 0.85 g of Drosophila Instant Medium (Formula 4–24, Carolina Biological Supply, Burlington, NC, USA) wetted with 4 mL of a mixture of distilled water and increasing concentrations of samples: B. officinalis BF and WF (1.25, 2.5, and 5 mg·mL^−1), RO (0.35, 0.7, 1.39 and 2.78 mM), SY (0.16, 0.32, 0.63 and 1.26 mM), SI (0.15, 0.29, 0.58 and 1.16 mM) and the mixture of these three bioactive compounds at each concentration assayed individually. Bioactive compound concentrations were chosen on the basis of their known content in B. officinalis species. […] Larvae were fed on these media until pupation (about 48 h). After emergence, resulting adult flies were sacrificed under CO2 narcotisation and stored in a 70% ethanol solution in sterile water. Emerged adults were counted for toxicity evaluation and transheterozygous wings (mwh flr^+/mwh^+ flr^3) were mounted on microscope slides and wing hair mutations (spots) scored, using a photonic microscope (Nikon) at 400× magnification for genotoxicity and antigenotoxicity evaluation.
For the evaluation of genotoxic effects, the frequencies of spots per fly of each treated series were compared to the concurrent negative control for each class of mutational clone as well as between simple and combined treatments for the same concentration comparisons. […] A multiple-decision procedure was used to categorize results as positive, inconclusive or negative. Inconclusive and positive results were evaluated by the non-parametric U test of Mann, Whitney and Wilcoxon. The inhibition percentage (IP) of genotoxicity was calculated from the total frequencies of spots per wing, following this formula [42]: IP = (genotoxin alone − sample + genotoxin) × 100/(genotoxin alone)(2)

## OO [H2O2, hydrogen peroxide, reference compound]
D. melanogaster [1]
  Survival: 37.87 * %
D. melanogaster [2]
  Diagnosis, Small Single Spots 1–2 Cells m = 2: +
  Diagnosis, Total Spots m = 2: +
  Mutation rate, Large Single Spots >2 Cells m = 5: 0.07 (11) spots/wing
  Mutation rate, Small Single Spots 1–2 Cells m = 2: 0.60 (94) spots/wing
  Mutation rate, Total Spots m = 2: 0.65 (109) spots/wing
  Mutation rate, Twin Spots m = 5: 0.06 (4) spots/wing
